Measurements taken from ChEMBL document CHEMBL5380800, “Discovery of Small-Molecule Autophagy Inhibitors by Disrupting the Protein-Protein Interactions Involving Autophagy-Related 5” (J Med Chem, 2023).
The source made the active and inactive calls. No cut-off for these calls is given here.

Columns and labels:
[1] = Inhibition of ATG5-ATG16L1 (unknown origin) protein protein interaction expressed in Escherichia coli BL21 (DE3) by HTRF method; set-up: species or system Homo sapiens
[2] = Inhibition of ATG5-TECAIR (unknown origin) protein protein interaction expressed in Escherichia coli BL21 (DE3) by HTRF method; set-up: species or system Homo sapiens
COS-7 [3] = experiment: Inhibition of autophagy in African green monkey COS-7 cells at 20 uM by flow cytometry analysis relative to control; format: functional; settings: Chlorocebus aethiops
COS-7 [4] = experiment: Inhibition of autophagy in African green monkey COS-7 cells assessed as effect on LC3 level at upto 40 uM by flow cytometry analysis; format: functional, cell-based; settings: Chlorocebus aethiops

| SMILES | IC50 ([1]; read-out: IC50) [µM] | IC50 ([2]; read-out: IC50) [µM] | inhibition at 20 µM (COS-7 [3]) [%] | IC50 [1] | IC50 [2] | inhibition (COS-7 [4]) |
| --- | --- | --- | --- | --- | --- | --- |
| O=C(O)c1ccc(N2C(=O)/C(=C/c3ccc(-c4cncnc4)s3)C=C2c2ccccc2)cc1 | > 11 | > 11 | 95.6 |  |  |  |
| CC1=NN(c2ccc(C(=O)O)cc2)C(=O)/C1=C\c1ccc(-c2ccccc2P(C)(C)=O)o1 |  |  |  | Not Active | Not Active |  |
| O=C(O)c1ccc(CN2C(=O)/C(=C/c3ccc(-c4ccc([N+](=O)[O-])cc4)o3)C=C2c2ccccc2)cc1 | 2.29 | 3.68 | 5.88 |  |  |  |
| CC1=NN(c2ccc(C(=O)O)cc2)C(=O)C1Cc1ccc(-c2cccc([N+](=O)[O-])c2)s1 (stereo not given) |  | > 33 |  | Not Active |  |  |
| CC(=O)c1ccc(-c2ccc(/C=C3\C=C(c4ccccc4)N(Cc4ccc(C(=O)O)cc4)C3=O)o2)cc1 | 26.9 | 16.3 | 14.6 |  |  |  |
| CC1=NN(c2ccc(C(=O)O)cc2)C(=O)C1Cc1ccc(-c2ccc([N+](=O)[O-])cc2)s1 (stereo not given) | > 33 | > 33 |  |  |  |  |
| O=C(O)CN1C(=O)/C(=C/c2ccc(-c3ccc([N+](=O)[O-])cc3)o2)C=C1c1ccccc1 |  | 31.2 | 3.29 | Not Active |  |  |
| CC1=NN(c2ccc(C(=O)O)cc2)C(=O)/C1=C\c1ccc(-c2cc(C)c(C)cc2[N+](=O)[O-])o1 | > 33 | > 33 |  |  |  |  |
| CC(=O)Nc1ccc(-c2ccc(/C=C3\C=C(c4ccccc4)N(Cc4ccc(C(=O)O)cc4)C3=O)o2)cc1 | 12.8 | 12 | 5.02 |  |  |  |
| O=C1/C(=C/c2ccc(-c3ccc([N+](=O)[O-])cc3)o2)C=C(c2ccccc2)N1Cc1ccccc1Br |  |  | 82.5 |  |  |  |
| O=C1/C(=C/c2ccc(-c3ccc([N+](=O)[O-])cc3)o2)C=C(c2ccccc2)N1Cc1ccccc1 |  |  | 78.7 | Not Active | Not Active |  |
| Cn1cnc(N)c2ncnc1-2 |  |  |  |  |  | inactive |
| N#Cc1ccc(-c2ccc(/C=C3\C=C(c4ccccc4)N(c4ccc(C(=O)O)cc4)C3=O)s2)cc1 |  |  | 93.9 | Not Active | Not Active |  |
| O=C(O)CCN1C(=O)/C(=C/c2ccc(-c3ccc([N+](=O)[O-])cc3)o2)C=C1c1ccccc1 | > 100 | 17.2 | 21.4 |  |  |  |
| CC1=NN(c2ccc(C(=O)O)cc2)C(=O)C1Cc1ccc(-c2cc(C)c(C)cc2[N+](=O)[O-])s1 (stereo not given) |  | > 33 |  | Not Active |  |  |
| NC(=O)c1ccc(-c2ccc(/C=C3\C=C(c4ccccc4)N(Cc4ccc(C(=O)O)cc4)C3=O)o2)cc1 | > 33 | > 33 | 38.9 |  |  |  |
| Cc1cc(-c2ccc(/C=C3\C(=O)N(c4ccc(C(=O)O)cc4)N=C3C3CC3)s2)c([N+](=O)[O-])cc1C | 22.3 | > 33 |  |  |  |  |
| O=C(O)CCN1C(=O)/C(=C/c2ccc(-c3ccc([N+](=O)[O-])cc3Cl)o2)SC1=S | 16 | 23 |  |  |  |  |
| CC(=O)c1cccc(-c2ccc(/C=C3\C=C(c4ccccc4)N(Cc4ccc(C(=O)O)cc4)C3=O)o2)c1 | 27.4 | 14.9 |  |  |  |  |
| COC(=O)CCN1C(=O)/C(=C/c2ccc(-c3ccc([N+](=O)[O-])cc3)o2)C=C1c1ccccc1 |  |  | 77.1 | Not Active | Not Active |  |
| Cc1cc(-c2ccc(CC3C(=O)N(c4ccc(C(=O)O)cc4)N=C3C3CC3)s2)c([N+](=O)[O-])cc1C (stereo not given) | > 33 | > 33 |  |  |  |  |
| O=C(O)c1ccc(CN2C(=O)/C(=C/c3ccc(-c4cccc([N+](=O)[O-])c4)o3)C=C2c2ccccc2)cc1 | 6.14 | 10.5 | 36 |  |  |  |
| O=C(O)c1ccc(N2C(=O)/C(=C/c3ccc(-c4ccc5nonc5c4)o3)C=C2c2ccccc2)cc1 | 17 | 12 | 94.7 |  |  |  |
| O=C(O)CCCCN1C(=O)/C(=C/c2ccc(-c3ccc([N+](=O)[O-])cc3)o2)C=C1c1ccccc1 | > 33 | 19.2 | 14.6 |  |  |  |
| COC(=O)CCCN1C(=O)/C(=C/c2ccc(-c3ccc([N+](=O)[O-])cc3)o2)C=C1c1ccccc1 |  |  | 74.5 | Not Active | Not Active |  |
| CC1=NN(c2ccc(C(=O)O)cc2)C(=O)C1Cc1ccc(-c2cc(C)c(C)cc2[N+](=O)[O-])o1 (stereo not given) | > 33 | > 33 |  |  |  |  |
| CC1=NN(c2ccccc2)C(=O)/C1=C\c1ccc(-c2cc(C)c(C)cc2[N+](=O)[O-])o1 |  | > 33 |  | Not Active |  |  |
| O=C(O)CCCN1C(=O)/C(=C/c2ccc(-c3ccc([N+](=O)[O-])cc3)o2)C=C1c1ccccc1 |  | 20.8 | 5.3 | Not Active |  |  |
| O=C(O)c1ccc(CN2C(=O)/C(=C/c3ccc(-c4ccccc4)o3)C=C2c2ccccc2)cc1 | > 33 | > 33 | 20.6 |  |  |  |
| O=C(O)c1ccc(N2C(=O)/C(=C/c3ccc(-c4ccc([N+](=O)[O-])cc4)s3)C=C2c2ccccc2)cc1 | 18 | 30 | 90.9 |  |  |  |
